Experimental data from paper PMC10653547, “Synergistic effect of two antimicrobial peptides, BP203 and MAP-0403 J-2 with conventional antibiotics against colistin-resistant Escherichia coli and Klebsiella pneumoniae clinical isolates” (PLOS ONE, 2023).

Tests used:
[1] = test system: colistin-resistant E. coli clinical isolates; assay: Disk diffusion antimicrobial susceptibility testing (CLSI); assay type: cell-based, Escherichia coli; conditions: for %Resistance: ten E. coli isolates, disk diffusion
Protocol: (§1) Ten non-duplicate clinical isolates of colistin-resistant E. coli (EC) and ten non-duplicate clinical isolates of colistin-resistant K. pneumoniae (KP) were obtained from the bacterial repository of the Division of Infectious Diseases and Tropical Medicine, Department of Medicine, Faculty of Medicine Siriraj Hospital, Mahidol University. The species identification was conducted through standard biochemical tests. Antimicrobial susceptibility testing was carried out using the disk diffusion method following CLSI guidelines. Additionally, the assessment of colistin resistance in all isolates was performed by broth microdilution following CLSI recommendations. […] The amino acid sequences of BP203 and MAP-0403 J-2 were retrieved from previous studies. These peptides are BP100 and MAP-0403 analogs, respectively. […] Antibiotic disks and defibrinated sheep blood were obtained from Oxoid (Basingstoke, UK). All culture media were purchased from Becton Dickinson (Frankin Lakes, NJ, USA). All chemicals were obtained from Sigma-Aldrich (St. Louis, MO, USA).

[2] = test system: colistin-resistant K. pneumoniae clinical isolates; assay: as above; assay type: cell-based, Klebsiella pneumoniae; conditions: for %Resistance: ten K. pneumoniae isolates, disk diffusion
Protocol: as §1

[3] = test system: colistin-resistant E. coli clinical isolates; assay: Checkerboard assay for synergy testing; assay type: cell-based, Escherichia coli
Protocol: (§2) The synergistic activities of various two-antimicrobial combinations against colistin-resistant E. coli and K. pneumoniae isolates were evaluated using the checkerboard assay, which was performed in 96-well plates. […] Two-fold serial dilutions of peptides and antibiotics were independently prepared in CAMHB. Afterward, a mixture of different concentrations of the antibiotics and peptides was added to the wells of the microplates. Antibiotics and peptides were also dispended alone in the first row and the first column, respectively. Bacterial inoculum was added to the 96-well plate to achieve a final concentration of 5 × 10^5 CFU/mL. Then, plates were incubated at 37 °C for 20–24 h. MICs were recorded as the minimum concentration of antimicrobial agents without bacterial growth. The interaction between the antimicrobials was determined by calculating the fractional inhibitory concentration index (FICI) according to the formula: FICI = FIC(drug A) + FIC(drug B), where FIC = the MIC of the drug when in the combination/MIC of drug tested individually.

[4] = test system: colistin-resistant K. pneumoniae clinical isolates; assay: Checkerboard assay for synergy testing; assay type: cell-based, Klebsiella pneumoniae
Protocol: as §2

[5] = isolate EC-01, checkerboard Rifampicin+BP203
[6] = isolate EC-01, checkerboard Rifampicin+MAP-0403 J-2
[7] = isolate EC-02, checkerboard Rifampicin+BP203
[8] = isolate EC-02, checkerboard Rifampicin+MAP-0403 J-2
[9] = isolate EC-03, checkerboard Rifampicin+BP203
[10] = isolate EC-03, checkerboard Rifampicin+MAP-0403 J-2
[11] = isolate EC-04, checkerboard Rifampicin+BP203
[12] = isolate EC-04, checkerboard Rifampicin+MAP-0403 J-2
[13] = isolate EC-05, checkerboard Rifampicin+BP203
[14] = isolate EC-05, checkerboard Rifampicin+MAP-0403 J-2
[15] = isolate EC-06, checkerboard Rifampicin+BP203
[16] = isolate EC-06, checkerboard Rifampicin+MAP-0403 J-2
[17] = isolate EC-07, checkerboard Rifampicin+BP203
[18] = isolate EC-07, checkerboard Rifampicin+MAP-0403 J-2
[19] = isolate EC-08, checkerboard Rifampicin+BP203
[20] = isolate EC-08, checkerboard Rifampicin+MAP-0403 J-2
[21] = isolate EC-09, checkerboard Rifampicin+BP203
[22] = isolate EC-09, checkerboard Rifampicin+MAP-0403 J-2
[23] = isolate EC-10, checkerboard Rifampicin+BP203
[24] = isolate EC-10, checkerboard Rifampicin+MAP-0403 J-2
[25] = isolate KP-01, checkerboard Rifampicin+BP203
[26] = isolate KP-01, checkerboard Rifampicin+MAP-0403 J-2
[27] = isolate KP-02, checkerboard Rifampicin+BP203
[28] = isolate KP-02, checkerboard Rifampicin+MAP-0403 J-2
[29] = isolate KP-03, checkerboard Rifampicin+BP203
[30] = isolate KP-03, checkerboard Rifampicin+MAP-0403 J-2
[31] = isolate KP-04, checkerboard Rifampicin+BP203
[32] = isolate KP-04, checkerboard Rifampicin+MAP-0403 J-2
[33] = isolate KP-05, checkerboard Rifampicin+BP203
[34] = isolate KP-05, checkerboard Rifampicin+MAP-0403 J-2
[35] = isolate KP-06, checkerboard Rifampicin+BP203
[36] = isolate KP-06, checkerboard Rifampicin+MAP-0403 J-2
[37] = isolate KP-07, checkerboard Rifampicin+BP203
[38] = isolate KP-07, checkerboard Rifampicin+MAP-0403 J-2
[39] = isolate KP-08, checkerboard Rifampicin+BP203
[40] = isolate KP-08, checkerboard Rifampicin+MAP-0403 J-2
[41] = isolate KP-09, checkerboard Rifampicin+BP203
[42] = isolate KP-09, checkerboard Rifampicin+MAP-0403 J-2
[43] = isolate KP-10, checkerboard Rifampicin+BP203
[44] = isolate KP-10, checkerboard Rifampicin+MAP-0403 J-2

Q: Which results are given for `NCC[C@H](O)C(=O)N[C@@H]1C[C@H](N)[C@@H](O[C@H]2O[C@H](CN)[C@@H](O)[C@H](O)[C@H]2O)[C@H](O)[C@H]1O[C@H]1O[C@H](CO)[C@@H](O)[C@H](N)[C@H]1O` [AK, amikacin]?
A: Interpreted results of disk diffusion ([1]; EC-01): S; Interpreted results of disk diffusion ([1]; EC-02): S; Interpreted results of disk diffusion ([1]; EC-03): S; Interpreted results of disk diffusion ([1]; EC-04): S; Interpreted results of disk diffusion ([1]; EC-05): S; Interpreted results of disk diffusion ([1]; EC-06): S; Interpreted results of disk diffusion ([1]; EC-07): S; Interpreted results of disk diffusion ([1]; EC-08): S; Interpreted results of disk diffusion ([1]; EC-09): S; Interpreted results of disk diffusion ([1]; EC-10): S; %Resistance [1]: 0%; Interpreted results of disk diffusion ([2]; KP-01): S; Interpreted results of disk diffusion ([2]; KP-02): R; Interpreted results of disk diffusion ([2]; KP-03): R; Interpreted results of disk diffusion ([2]; KP-04): R; Interpreted results of disk diffusion ([2]; KP-05): I; Interpreted results of disk diffusion ([2]; KP-06): R; Interpreted results of disk diffusion ([2]; KP-07): S; Interpreted results of disk diffusion ([2]; KP-08): S; Interpreted results of disk diffusion ([2]; KP-09): S; Interpreted results of disk diffusion ([2]; KP-10): S; %Resistance [2]: 40%

Q: With `C[C@H]1[C@H](NC(=O)/C(=N\OC(C)(C)C(=O)O)c2csc(N)n2)C(=O)N1S(=O)(=O)O` [ATM, aztreonam] as the compound, how does the “Interpreted results of disk diffusion” value ([1]; EC-01) read?
A: R

Q: What about the “Interpreted results of disk diffusion” value ([1]; EC-02) of the same compound?
A: R

Q: And the “Interpreted results of disk diffusion” value ([1]; EC-03)?
A: R

Q: And the “Interpreted results of disk diffusion” value ([1]; EC-04)?
A: R

Q: What about the “Interpreted results of disk diffusion” value ([1]; EC-05) of the same compound?
A: S

Q: What about the “Interpreted results of disk diffusion” value ([1]; EC-06) of the same compound?
A: I

Q: And the “Interpreted results of disk diffusion” value ([1]; EC-07)?
A: R

Q: And the “Interpreted results of disk diffusion” value ([1]; EC-08)?
A: S

Q: And the “Interpreted results of disk diffusion” value ([1]; EC-09)?
A: R

Q: What about the “Interpreted results of disk diffusion” value ([1]; EC-10) of the same compound?
A: R

Q: And the “%Resistance” value [1]?
A: 70%

Q: What about the “%Resistance” value [2] of the same compound?
A: 100%

Q: How did the “Interpreted results of disk diffusion” value ([1]; EC-01) turn out when `CO/N=C(\C(=O)N[C@@H]1C(=O)N2C(C(=O)O)=C(CSc3nc(=O)c(=O)[nH]n3C)CS[C@H]12)c1csc(N)n1` [CRO, ceftriaxone] was run?
A: R

Q: And the “Interpreted results of disk diffusion” value ([1]; EC-02)?
A: R

Q: What about the “Interpreted results of disk diffusion” value ([1]; EC-03) of the same compound?
A: R

Q: What about the “Interpreted results of disk diffusion” value ([1]; EC-04) of the same compound?
A: R

Q: What about the “Interpreted results of disk diffusion” value ([1]; EC-05) of the same compound?
A: R

Q: And the “Interpreted results of disk diffusion” value ([1]; EC-06)?
A: R

Q: And the “Interpreted results of disk diffusion” value ([1]; EC-07)?
A: R

Q: And the “Interpreted results of disk diffusion” value ([1]; EC-08)?
A: R

Q: And the “Interpreted results of disk diffusion” value ([1]; EC-09)?
A: R

Q: And the “Interpreted results of disk diffusion” value ([1]; EC-10)?
A: R

Q: What about the “%Resistance” value [1] of the same compound?
A: 100%

Q: And the “Interpreted results of disk diffusion” value ([2]; KP-01)?
A: R

Q: What about the “Interpreted results of disk diffusion” value ([2]; KP-02) of the same compound?
A: R

Q: What about the “Interpreted results of disk diffusion” value ([2]; KP-03) of the same compound?
A: R

Q: What about the “Interpreted results of disk diffusion” value ([2]; KP-04) of the same compound?
A: R

Q: And the “Interpreted results of disk diffusion” value ([2]; KP-05)?
A: R

Q: What about the “Interpreted results of disk diffusion” value ([2]; KP-06) of the same compound?
A: R

Q: What about the “Interpreted results of disk diffusion” value ([2]; KP-07) of the same compound?
A: R

Q: And the “Interpreted results of disk diffusion” value ([2]; KP-08)?
A: R

Q: What about the “Interpreted results of disk diffusion” value ([2]; KP-09) of the same compound?
A: R

Q: And the “Interpreted results of disk diffusion” value ([2]; KP-10)?
A: R

Q: And the “%Resistance” value [2]?
A: 100%

Q: Which results are given for `CO[C@H]1/C=C/O[C@@]2(C)Oc3c(C)c(O)c4c(O)c(c(/C=N/N5CCN(C)CC5)c(O)c4c3C2=O)NC(=O)/C(C)=C\C=C\[C@H](C)[C@H](O)[C@@H](C)[C@@H](O)[C@@H](C)[C@H](OC(C)=O)[C@@H]1C` [RIF, rifampicin]?
A: MIC alone [3, 5]: 2 µg/mL; MIC combination [3, 5]: 1 µg/mL; MIC alone [3, 6]: 4 µg/mL; MIC combination [3, 6]: 0.5 µg/mL; MIC alone [3, 7]: 4 µg/mL; MIC combination [3, 7]: 0.25 µg/mL; MIC alone [3, 8]: 8 µg/mL; MIC combination [3, 8]: 2 µg/mL; MIC alone [3, 9]: 4 µg/mL; MIC combination [3, 9]: 1 µg/mL; MIC alone [3, 10]: 8 µg/mL; MIC combination [3, 10]: 0.25 µg/mL; MIC alone [3, 11]: 4 µg/mL; MIC combination [3, 11]: 1 µg/mL; MIC alone [3, 12]: 16 µg/mL; MIC combination [3, 12]: 4 µg/mL; MIC alone [3, 13]: 2 µg/mL; MIC combination [3, 13]: 0.5 µg/mL; MIC alone [3, 14]: 8 µg/mL; MIC combination [3, 14]: 2 µg/mL; MIC alone [3, 15]: 4 µg/mL; MIC combination [3, 15]: 1 µg/mL; MIC alone [3, 16]: 8 µg/mL; MIC combination [3, 16]: 1 µg/mL; MIC alone [3, 17]: 4 µg/mL; MIC combination [3, 17]: 1 µg/mL; MIC alone [3, 18]: 16 µg/mL; MIC combination [3, 18]: 4 µg/mL; MIC alone [3, 19]: 2 µg/mL; MIC combination [3, 19]: 0.5 µg/mL; MIC alone [3, 20]: 8 µg/mL; MIC combination [3, 20]: 0.25 µg/mL; MIC alone [3, 21]: 4 µg/mL; MIC combination [3, 21]: 2 µg/mL; MIC alone [3, 22]: 8 µg/mL; MIC combination [3, 22]: 0.5 µg/mL; MIC alone [3, 23]: 2 µg/mL; MIC combination [3, 23]: 0.5 µg/mL; MIC alone [3, 24]: 8 µg/mL; MIC combination [3, 24]: 0.5 µg/mL; MIC alone [4, 25]: 512 µg/mL; MIC combination [4, 25]: 16 µg/mL; MIC alone [4, 26]: 256 µg/mL; MIC combination [4, 26]: 16 µg/mL; MIC alone [4, 27]: 512 µg/mL; MIC combination [4, 27]: 4 µg/mL; MIC alone [4, 28]: 256 µg/mL; MIC combination [4, 28]: 16 µg/mL; MIC alone [4, 29]: 32 µg/mL; MIC combination [4, 29]: 4 µg/mL; MIC alone [4, 30]: 32 µg/mL; MIC combination [4, 30]: 2 µg/mL; MIC alone [4, 31]: 128 µg/mL; MIC combination [4, 31]: 4 µg/mL; MIC alone [4, 32]: 256 µg/mL; MIC combination [4, 32]: 32 µg/mL; MIC alone [4, 33]: 16 µg/mL; MIC combination [4, 33]: 1 µg/mL; MIC alone [4, 34]: 16 µg/mL; MIC combination [4, 34]: 1 µg/mL; MIC alone [4, 35]: 512 µg/mL; MIC combination [4, 35]: 8 µg/mL; MIC alone [4, 36]: 256 µg/mL; MIC combination [4, 36]: 32 µg/mL; MIC alone [4, 37]: 32 µg/mL; MIC combination [4, 37]: 4 µg/mL; MIC alone [4, 38]: 32 µg/mL; MIC combination [4, 38]: 2 µg/mL; MIC alone [4, 39]: 16 µg/mL; MIC combination [4, 39]: 4 µg/mL; MIC alone [4, 40]: 16 µg/mL; MIC combination [4, 40]: 2 µg/mL; MIC alone [4, 41]: 512 µg/mL; MIC combination [4, 41]: 32 µg/mL; MIC alone [4, 42]: 256 µg/mL; MIC combination [4, 42]: 128 µg/mL; MIC alone [4, 43]: 32 µg/mL; MIC combination [4, 43]: 4 µg/mL; MIC alone [4, 44]: 32 µg/mL; MIC combination [4, 44]: 2 µg/mL
